Laboratory results taken from patent US10472356B2, “Bicyclic ketone sulfonamide compounds” (AMGEN INC., priority 2015, dated 2019).

Assays:
Assay type in all cases: cell-based
human Nav1.7 [1] = biological target: T1, human Nav1.7 (Homo sapiens, UniProt Q15858); test: Nav 1.7 In Vitro PatchXpress (PX) Assay; details: HEK 293 cells stably transfected with human Nav1.7; PatchXpress whole cell voltage clamp; partially inactivated state (holding potential yielding 20 to 50% inactivation); read-out: hNav1.7 PX IC50
T1 construct: expressed in transfected cells; host or cells: HEK293
Outline: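 Whole-cell voltage clamp on HEK 293 cells stably expressing human Nav1.7 (automated patch), holding potential giving 20–50% inactivation; 20 ms pulses to −10 mV at 0.1 Hz. Single compound concentration applied 3 min, peak current inhibition measured; IC50 fitted from 3–5 cells per concentration.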

human Nav1.7 [2] = biological target: T1, human Nav1.7; test: Nav 1.7 IWQ In Vitro Assay (IonWorks Quattro); details: HEK293 cells stably transfected with human Nav 1.7; IonWorks Quattro population patch-clamp; 26th pulse to −20 mV, 5 Hz; cells unclamped 5 to 8 minutes with compound; read-out: hNav1.7 IWQ IC50
Outline: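 Population patch clamp on HEK293 cells stably expressing human Nav 1.7: held at −110 mV for three seconds, then 26 pulses of 150 msec to −20 mV at 5 Hz, before and after 5-8 min with one compound concentration. Percent inhibition from peak current at the 26th pulse.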

human Nav1.7 [3] = biological target: T1, human Nav1.7; test: Nav 1.7 IWB In Vitro Assay (IonWorks Barracuda); details: HEK293 cells stably transfected with human Nav 1.7; IonWorks Barracuda population patch-clamp; cells clamped to −20 mV for 4 minutes with compound; 26th pulse; read-out: hNav1.7 IWB IC50
Outline: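 Population patch clamp of HEK293 cells stably expressing human Nav 1.7: 26 pulses to −20 mV (150 ms, 5 Hz) from −110 mV, then 4 min at −20 mV with compound, 3 s recovery at −110 mV and the train repeated. % inhibition of 26th-pulse peak current vs no compound; IC50 from concentration-response curves.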

T1 sequence (Q15858 whole entry): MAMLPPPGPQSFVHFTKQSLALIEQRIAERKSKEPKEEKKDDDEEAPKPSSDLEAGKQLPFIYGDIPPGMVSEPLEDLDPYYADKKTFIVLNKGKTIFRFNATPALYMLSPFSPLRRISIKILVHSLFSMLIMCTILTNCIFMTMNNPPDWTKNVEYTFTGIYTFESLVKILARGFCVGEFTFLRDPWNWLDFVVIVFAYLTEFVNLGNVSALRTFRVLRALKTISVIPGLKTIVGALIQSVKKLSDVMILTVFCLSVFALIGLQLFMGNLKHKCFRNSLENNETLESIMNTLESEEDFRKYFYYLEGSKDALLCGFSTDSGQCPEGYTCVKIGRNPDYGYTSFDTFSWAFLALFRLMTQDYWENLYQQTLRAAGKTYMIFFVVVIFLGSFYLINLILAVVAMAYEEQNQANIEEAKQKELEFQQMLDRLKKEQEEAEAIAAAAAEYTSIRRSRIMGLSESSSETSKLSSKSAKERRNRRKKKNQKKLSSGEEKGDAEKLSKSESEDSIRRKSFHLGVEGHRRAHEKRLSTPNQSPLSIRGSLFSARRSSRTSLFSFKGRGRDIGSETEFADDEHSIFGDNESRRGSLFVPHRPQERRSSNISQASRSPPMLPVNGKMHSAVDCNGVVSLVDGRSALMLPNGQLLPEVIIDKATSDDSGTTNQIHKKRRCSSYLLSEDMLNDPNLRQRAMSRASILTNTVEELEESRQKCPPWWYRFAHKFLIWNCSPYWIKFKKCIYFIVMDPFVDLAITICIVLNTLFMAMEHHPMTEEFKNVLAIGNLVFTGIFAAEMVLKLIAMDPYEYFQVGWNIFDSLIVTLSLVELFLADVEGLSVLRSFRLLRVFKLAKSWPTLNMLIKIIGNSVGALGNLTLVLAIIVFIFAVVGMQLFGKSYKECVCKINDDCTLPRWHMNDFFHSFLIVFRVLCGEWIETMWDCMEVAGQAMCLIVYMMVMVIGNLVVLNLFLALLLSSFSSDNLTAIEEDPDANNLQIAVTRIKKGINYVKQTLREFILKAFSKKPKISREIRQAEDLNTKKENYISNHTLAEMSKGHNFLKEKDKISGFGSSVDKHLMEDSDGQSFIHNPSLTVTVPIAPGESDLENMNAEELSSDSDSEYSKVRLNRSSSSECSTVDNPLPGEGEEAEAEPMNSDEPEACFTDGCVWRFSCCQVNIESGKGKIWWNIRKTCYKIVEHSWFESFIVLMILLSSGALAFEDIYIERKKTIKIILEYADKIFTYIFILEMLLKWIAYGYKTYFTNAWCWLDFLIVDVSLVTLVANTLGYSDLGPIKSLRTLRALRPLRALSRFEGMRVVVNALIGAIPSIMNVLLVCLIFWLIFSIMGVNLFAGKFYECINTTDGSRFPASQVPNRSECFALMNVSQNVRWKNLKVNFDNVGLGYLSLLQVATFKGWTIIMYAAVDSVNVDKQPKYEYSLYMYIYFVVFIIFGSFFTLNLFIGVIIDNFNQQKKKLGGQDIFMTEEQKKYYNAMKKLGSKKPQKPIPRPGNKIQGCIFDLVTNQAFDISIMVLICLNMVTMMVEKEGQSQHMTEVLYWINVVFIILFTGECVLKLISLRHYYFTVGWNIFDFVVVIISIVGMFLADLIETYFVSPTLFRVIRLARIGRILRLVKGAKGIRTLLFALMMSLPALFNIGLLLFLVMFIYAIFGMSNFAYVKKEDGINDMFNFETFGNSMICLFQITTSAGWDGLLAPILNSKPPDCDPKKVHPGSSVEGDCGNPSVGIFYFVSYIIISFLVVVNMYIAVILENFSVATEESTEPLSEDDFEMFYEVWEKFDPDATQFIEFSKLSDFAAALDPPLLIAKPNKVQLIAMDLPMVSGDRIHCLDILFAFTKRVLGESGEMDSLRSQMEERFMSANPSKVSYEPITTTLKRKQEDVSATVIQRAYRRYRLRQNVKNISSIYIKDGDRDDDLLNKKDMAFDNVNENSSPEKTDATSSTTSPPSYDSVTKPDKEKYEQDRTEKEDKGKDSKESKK

Row | Compound | IC50 (human Nav1.7 [1]) [µM] | IC50 (human Nav1.7 [2]) [µM] | IC50 (human Nav1.7 [3]) [µM]
1 | COc1cc(-c2ccc(Cl)c(C)c2)c(F)cc1-n1c2c(ccc1=O)CN(S(=O)(=O)Nc1ccon1)CC2 (single isomer, unassigned) [Example 24-P, P-1-(4′-chloro-2-fluoro-5-methoxy-3′-methyl-4-biphenylyl)-N-3-isoxazolyl-2-oxo-1,5,7,8-tetrahydro-1,6-naphthyridine-6(2H)-sulfonamide] | 0.0209 | 0.0052 | 0.0038
2 | COc1cc(-c2ccc(Cl)c(C)c2)c(F)cc1-n1c2c(ccc1=O)CN(S(=O)(=O)Nc1ncccn1)CC2 (single isomer, unassigned) [Example 30-P, P-1-(4′-chloro-2-fluoro-5-methoxy-3′-methyl-4-biphenylyl)-2-oxo-N-2-pyrimidinyl-1,5,7,8-tetrahydro-1,6-naphthyridine-6(2H)-sulfonamide] | 0.197 | 0.0133 | 0.0375
3 | COc1cc(-c2ccc(F)c(F)c2)c(F)cc1-n1c2c(ccc1=O)CN(S(=O)(=O)Nc1cccnn1)CC2 (single isomer, unassigned) [Example 32-P, P-2-oxo-N-3-pyridazinyl-1-(2,3′,4′-trifluoro-5-methoxy-4-biphenylyl)-1,5,7,8-tetrahydro-1,6-naphthyridine-6(2H)-sulfonamide] | 0.144 | 0.0184 | 0.0175
4 | COc1cc(-c2ccc(Cl)c(C)c2)c(F)cc1-n1c2c(ccc1=O)CN(S(=O)(=O)Nc1cccnn1)CC2 (single isomer, unassigned) [Example 33-P, P-1-(4′-chloro-2-fluoro-5-methoxy-3′-methyl-4-biphenylyl)-2-oxo-N-3-pyridazinyl-1,5,7,8-tetrahydro-1,6-naphthyridine-6(2H)-sulfonamide] | 0.0213 | 0.0147 | 0.0126
5 | COc1cc(C#CC2CCCC2)c(F)cc1-n1c2c(ccc1=O)CN(S(=O)(=O)Nc1ccon1)CC2 (single isomer, unassigned) [Example 34-P, P-1-(4-(cyclopentylethynyl)-5-fluoro-2-methoxyphenyl)-N-3-isoxazolyl-2-oxo-1,5,7,8-tetrahydro-1,6-naphthyridine-6(2H)-sulfonamide] | 0.192 | 0.0092 | 0.0122
6 | COc1cc(-c2cc(F)cc(Cl)c2)c(F)cc1-n1c2c(ccc1=O)CN(S(=O)(=O)Nc1cccnn1)CC2 (single isomer, unassigned) [Example 38-P, P-1-(3′-chloro-2,5′-difluoro-5-methoxy-4-biphenylyl)-2-oxo-N-3-pyridazinyl-1,5,7,8-tetrahydro-1,6-naphthyridine-6(2H)-sulfonamide] | 0.0561 | 0.0067 | 0.0109
7 | COc1cc(-c2cc(OC)c(-n3c4c(ccc3=O)CN(S(=O)(=O)Nc3ccon3)CC4)cc2F)ccc1C (single isomer, unassigned) [Example 58-P, P-1-(2-fluoro-3′,5-dimethoxy-4′-methyl-4-biphenylyl)-N-3-isoxazolyl-2-oxo-1,5,7,8-tetrahydro-1,6-naphthyridine-6(2H)-sulfonamide] | 0.107 | 0.0194 | 0.0092
8 | COc1cc(-c2cccc(C(F)(F)F)c2)c(Cl)cc1-n1c2c(ccc1=O)CN(S(=O)(=O)Nc1cccnn1)CC2 (single isomer, unassigned) [Example 91-P, P-1-(2-chloro-5-methoxy-3′-(trifluoromethyl)-[1,1′-biphenyl]-4-yl)-2-oxo-N-(pyridazin-3-yl)-1,2,7,8-tetrahydro-1,6-naphthyridine-6(5H)-sulfonamide] | 0.0169 | 0.0034 | 0.0035
9 | COc1cc(-c2cc(F)cc(F)c2)c(F)cc1-n1c2c(ccc1=O)CN(S(=O)(=O)Nc1ccon1)[C@H](C)C2 [Example 3-D-P, P-(7R)-N-3-isoxazolyl-7-methyl-2-oxo-1-(2,3′,5′-trifluoro-5-methoxy-4-biphenylyl)-1,5,7,8-tetrahydro-1,6-naphthyridine-6(2H)-sulfonamide] | 0.23 | 0.0405 | 0.04
10 | COc1cc(-c2cccc(OC(F)(F)F)c2)c(F)cc1-n1c2c(ccc1=O)CN(S(=O)(=O)Nc1cccnn1)CC2 [Example 66, P-1-(2-fluoro-5-methoxy-3′-(trifluoromethoxy)-[1,1′-biphenyl]-4-yl)-2-oxo-N-(pyridazin-3-yl)-1,2,7,8-tetrahydro-1,6-naphthyridine-6(5H)-sulfonamide] | 0.0371 | 0.0023 | 0.0038
11 | COc1cc(-c2cccc(OCC(F)(F)F)c2)c(F)cc1-n1c2c(ccc1=O)CN(S(=O)(=O)Nc1cccnn1)CC2 [Example 68, P-1-(2-fluoro-5-methoxy-3′-(2,2,2-trifluoroethoxy)-[1,1′-biphenyl]-4-yl)-2-oxo-N-(pyridazin-3-yl)-1,2,7,8-tetrahydro-1,6-naphthyridine-6(5H)-sulfonamide] | 0.0742 | 0.0024 | 0.0053
12 | COc1cc(-c2ccc(F)c(C(F)(F)F)c2)c(F)cc1-n1c2c(ccc1=O)CN(S(=O)(=O)Nc1cccnn1)CC2 [Example 71, P-1-(2,4′-difluoro-5-methoxy-3′-(trifluoromethyl)-[1,1′-biphenyl]-4-yl)-2-oxo-N-(pyridazin-3-yl)-1,2,7,8-tetrahydro-1,6-naphthyridine-6(5H)-sulfonamide] | 0.0294 | 0.0028 | 0.0069
13 | COc1cc(-c2cc(Cl)cc(OC(F)(F)F)c2)c(F)cc1-n1c2c(ccc1=O)CN(S(=O)(=O)Nc1cccnn1)CC2 [Example 77, P-1-(3′-chloro-2-fluoro-5-methoxy-5′-(trifluoromethoxy)-[1,1′-biphenyl]-4-yl)-2-oxo-N-(pyridazin-3-yl)-1,2,7,8-tetrahydro-1,6-naphthyridine-6(5H)-sulfonamide] | 0.0405 | 0.0013 | 0.0044
14 | COc1cc(Cl)cc(-c2cc(OC)c(-n3c4c(ccc3=O)CN(S(=O)(=O)Nc3ccon3)CC4)cc2F)c1 [Example 89, P-1-(3′-chloro-2-fluoro-5,5′-dimethoxy-[1,1′-biphenyl]-4-yl)-N-(isoxazol-3-yl)-2-oxo-1,2,7,8-tetrahydro-1,6-naphthyridine-6(5H)-sulfonamide] | 0.0199 | 0.0013 | 0.0088
15 | COc1cc(OC)cc(-c2cc(OC)c(-n3c4c(ccc3=O)CN(S(=O)(=O)Nc3ccon3)CC4)cc2F)c1 [Example 90, P-1-(2-fluoro-3′,5,5′-trimethoxy-[1,1′-biphenyl]-4-yl)-N-(isoxazol-3-yl)-2-oxo-1,2,7,8-tetrahydro-1,6-naphthyridine-6(5H)-sulfonamide] | 0.164 | 0.0032 | 0.0365
